How the values were obtained:
HnoK = target: T1, HnoK (Caulobacter vibrioides, UniProt A0A0H3CAQ8, D543N); assay: […] autophosphorylation, SDS-PAGE autoradiography; format: biochemical; settings: 1 mM ATP with [gamma-32P]ATP, Mn2+ or Mg2+ 5 mM (Mn2+ preferred), room temperature; MBP fusion; labelled compound
T1 construct: gene CCNA_03088; N-terminal 6-His version also tested; E. coli BL21(DE3); homodimer

[1] = target: Caulobacter crescentus histidine kinase HnoK, as purified (Caulobacter crescentus); assay: SEC; HiPrep Sephacryl S-200 HR column in 20 mM Tris, pH 8, 150 mM NaCl; elution volumes at the last step of purification

T1 sequence (A0A0H3CAQ8 entry or part of it D543N): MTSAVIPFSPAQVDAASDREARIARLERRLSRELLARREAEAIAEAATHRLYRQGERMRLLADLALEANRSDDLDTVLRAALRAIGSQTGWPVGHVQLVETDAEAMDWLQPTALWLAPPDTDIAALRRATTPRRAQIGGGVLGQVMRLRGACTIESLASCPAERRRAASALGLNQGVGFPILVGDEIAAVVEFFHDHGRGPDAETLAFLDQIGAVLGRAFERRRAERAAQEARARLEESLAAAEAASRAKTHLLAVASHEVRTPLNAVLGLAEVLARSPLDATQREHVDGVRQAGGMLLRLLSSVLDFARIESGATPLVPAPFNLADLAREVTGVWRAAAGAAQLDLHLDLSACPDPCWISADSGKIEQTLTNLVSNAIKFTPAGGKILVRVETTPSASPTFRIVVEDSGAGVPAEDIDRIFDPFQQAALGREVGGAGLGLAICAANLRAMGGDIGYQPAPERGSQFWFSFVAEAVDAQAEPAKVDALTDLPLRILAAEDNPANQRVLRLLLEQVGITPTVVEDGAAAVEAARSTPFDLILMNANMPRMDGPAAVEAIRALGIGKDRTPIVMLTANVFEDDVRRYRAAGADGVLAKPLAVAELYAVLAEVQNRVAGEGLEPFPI

Compound	32P autophosphorylation, SDS-PAGE autoradiography (HnoK)	stoichiometry N [1]
Nc1ncnc2c1ncn2[C@@H]1O[C@H](COP(=O)(O)OP(=O)(O)OP(=O)(O)O)[C@@H](O)[C@H]1O [ATP]	D543N HnoK-MBP was used for the autophosphorylation assays shown	
Caulobacter crescentus histidine kinase HnoK, as purified (from UniProt A0A0H3CAQ8 1-624) (enzyme)		2
